Among the test systems are BT-549 breast; DU-145 prostate; HCT-116 colon; MCF7 breast; NCI-H226 lung; NCI-H522 lung; OVCAR-3 ovarian; OVCAR-4 ovarian; OVCAR-5 ovarian; SN12C renal.
Assay in all cases: NCI anticancer screen, dose series, 48 h

The results in this text go back to PubChem BioAssay (NCI).

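Briefly, cells in 96-well plates were exposed to five compound concentrations for 48 h, and endpoints were estimated by linear interpolation. TGI: total growth inhibition.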

On to `CC(C)C[S+]1C2=C([O-])CC(C)(C)CC2=Nc2ccccc21` (centres undefined), for which the TGI in the assay with BT-549 breast, with DU-145 prostate, in the assay on HCT-116 colon, in the assay with MCF7 breast, with NCI-H226 lung and in the assay on NCI-H522 lung was above 100 µM throughout. For the same compound, the TGI with OVCAR-3 ovarian, in the assay on OVCAR-4 ovarian, in the assay on OVCAR-5 ovarian and with SN12C renal was above 100 µM in each case.

`COc1ccccc1C1C2=C(COC2=O)Oc2cc3c(cc21)OCO3` (centres undefined): the TGI with BT-549 breast was above 100 µM; with DU-145 prostate it was above 42.4 µM; in the assay with HCT-116 colon, above 100 µM; with MCF7 breast it was above 89.9 µM; in the assay with NCI-H226 lung, above 100 µM; in the assay on NCI-H522 lung, 8.11 µM. Moreover, the TGI is 16.7 µM with OVCAR-3 ovarian, above 100 µM with OVCAR-4 ovarian, above 92.4 µM in the assay on OVCAR-5 ovarian and above 100 µM with SN12C renal.

Regarding `CC(=O)Nc1ccc(NC(=O)CC(=O)Nc2ccc(NC(C)=O)cc2)cc1`, the TGI with BT-549 breast, with DU-145 prostate, in the assay with HCT-116 colon, in the assay with MCF7 breast, in the assay with NCI-H226 lung and with NCI-H522 lung was above 100 µM throughout. In addition, the TGI in the assay on OVCAR-3 ovarian, with OVCAR-4 ovarian and in the assay on SN12C renal was above 100 µM throughout.

With `CN(C)CCCNC(=O)N/N=C/c1ccc(O)cc1`, the TGI with BT-549 breast, in the assay with DU-145 prostate, in the assay on HCT-116 colon, in the assay on MCF7 breast, in the assay on NCI-H226 lung and in the assay on NCI-H522 lung was above 100 µM each time. The TGI in the assay with OVCAR-3 ovarian, in the assay with OVCAR-5 ovarian and with SN12C renal was above 100 µM in each case.

Regarding `CC1=C(C(=O)NNC(=O)Cc2ccccc2)CC(C(=O)NNC(=O)Cc2ccccc2)=C(C)N1`, the TGI with BT-549 breast, in the assay with DU-145 prostate, with HCT-116 colon, in the assay with MCF7 breast, with NCI-H226 lung and with OVCAR-3 ovarian was above 100 µM each time. The TGI in the assay with OVCAR-4 ovarian, in the assay with OVCAR-5 ovarian and in the assay with SN12C renal was above 100 µM throughout.

In the case of `CN(C)c1ccc(/C=C/C(=O)c2cc(C(C)(C)C)c(O)c(C(C)(C)C)c2)cc1`, the TGI with BT-549 breast was above 100 µM; in the assay on DU-145 prostate, 6.8 µM; in the assay with HCT-116 colon, 24.4 µM; with MCF7 breast it was above 100 µM; in the assay on NCI-H226 lung, above 65.9 µM; in the assay with NCI-H522 lung, 6 µM. For the same compound, the TGI with OVCAR-4 ovarian is above 100 µM; with OVCAR-5 ovarian it was above 30.2 µM; in the assay on SN12C renal it was above 38.7 µM.

For the compound `N=c1c2sc3nc4ccccc4n3c2ncn1Cc1ccccc1`, the TGI with BT-549 breast, in the assay with DU-145 prostate, in the assay on HCT-116 colon, in the assay with MCF7 breast, with NCI-H226 lung and in the assay on NCI-H522 lung was above 100 µM throughout. Moreover, the TGI with OVCAR-3 ovarian, with OVCAR-4 ovarian and in the assay on OVCAR-5 ovarian was above 100 µM in each case.

Consider `COC(CNC(=O)CNC(=O)c1ccc(C(F)(F)F)cc1)OC`, for which the TGI in the assay with BT-549 breast, in the assay on DU-145 prostate, with HCT-116 colon, with MCF7 breast, with NCI-H226 lung and in the assay on NCI-H522 lung was above 100 µM throughout. In addition, the TGI in the assay with OVCAR-5 ovarian and in the assay on SN12C renal was above 100 µM in each case.

With `Cc1ccc(C2(O)c3ccccc3C(=O)N(C)C2(O)c2ccc(C)cc2)cc1` (centres undefined), the TGI in the assay on BT-549 breast, in the assay with DU-145 prostate, in the assay with HCT-116 colon, in the assay on MCF7 breast, in the assay with NCI-H522 lung and in the assay on OVCAR-3 ovarian was above 100 µM throughout. Besides, the TGI was 50.9 µM with OVCAR-4 ovarian, above 100 µM in the assay on OVCAR-5 ovarian and above 100 µM in the assay on SN12C renal.

For the compound `COc1c(C)c(C/C=C(\C)CC/C=C(\C)CC/C=C(\C)CCC=C(C)C)c(OC)c(OC)c1OC`, the TGI in the assay with BT-549 breast, with DU-145 prostate, in the assay with HCT-116 colon, with MCF7 breast, in the assay with NCI-H522 lung and in the assay with OVCAR-3 ovarian was above 100 µM each time. Besides, the TGI with OVCAR-4 ovarian, in the assay with OVCAR-5 ovarian and with SN12C renal was above 100 µM each time.

As to `C=CCn1c(-c2cc(C(C)(C)C)c(O)c(C(C)(C)C)c2)cs/c1=N\C(P(=O)(O)O)P(=O)(O)O`, the TGI in the assay on BT-549 breast, in the assay on DU-145 prostate, in the assay with HCT-116 colon, in the assay with MCF7 breast, with NCI-H226 lung and in the assay on OVCAR-3 ovarian was above 100 µM each time. Also, the TGI in the assay on OVCAR-4 ovarian, in the assay with OVCAR-5 ovarian and in the assay on SN12C renal was above 100 µM in each case.

For the compound `C/C=C1\CC(C(=O)OCC)CCCCCCC1=O` (centres undefined), the TGI in the assay on BT-549 breast, in the assay on DU-145 prostate, with HCT-116 colon, in the assay on MCF7 breast, in the assay on NCI-H226 lung and in the assay on NCI-H522 lung was above 100 µM in each case. The TGI in the assay on OVCAR-4 ovarian, in the assay with OVCAR-5 ovarian and in the assay with SN12C renal was above 100 µM in each case.
